US20240287065A1, “COMPOUND AS CDK KINASE INHIBITOR AND USE THEREOF” (TYK MEDICINES (ZHENGZHOU) , INC., priority 2021, published 2024)
Read-outs that look alike come from different tables or passages of the source.

Key:
MCF-7-Palbo-R cells = experiment: MCF-7-Palbo-R cell antiproliferative assay (BrdU ELISA); format: cell-based; settings: for IC50: 72 hours, BrdU
Description: 1. Experimental Materials • MCF-7/palbo-R • EMEM medium (ATCC, 30-2003); DMEM/F12 medium (Gibco-1 1330-032) • Fetal bovine serum (cellmax-SA21 1.02) • DMSO (SIGMA, D2650) • BrdU ELISA cell proliferation assay kit (Roche, 11647229001) • ELISA (e.g. MD-SpectraMax ID5 or EnVision)
2. Experimental protocol • 1. Cell spreading • 1) Cells were counted, the concentration of cell suspension was adjusted • 2) The MCF7/Palbo-R cell suspension was seeded in 96-well plates at […] volume to make the number of cells per well is 4000-5000; • 3) Blank control group was added with 90 μl of culture medium; • 2. […] A 3-fold serial gradient dilution was performed with 0.1% DMSO medium for a total of 9 concentrations, and the concentrations of the compounds after dilution were as follows: • 10000 nM, 3333.33 nM, 1111.11 nM, 370.34 nM, 123.45 nM, 41.15 nM, 13.72 nM, 4.57 nM, and 1.52 nM. • b) After 72 hours of compound treatment. • 1) A 10 mM of Brdu stock solution was diluted with RPMI medium and added to a 96-well plate at 20 uL/well and shaken at 350 rpm for 10 minutes. • 2) The 96 well plate was placed back into the incubator for 1 or 2 hours. • 3) After the medium was removed from the 96-well plate, 200 ul/well of Fixation/Denaturation solution was added and incubated for 30 minutes at room temperature. • 4) The fixation solution was removed and 100 ul of peroxidase-coupled anti-Brdu antibody solution (antibody dilution prepared at 1:100 dilution) was added, • and incubated at 350 rpm for 1 hour at room temperature. • 6) The 96-well plate was washed three times with 300 ul/well of PBS. • 8) 100ul of peroxidase substrate solution was added and shaken at 350 rpm for about 10-20 minutes at room temperature, • until the DMSO-treated cell control wells turn a medium blue color. If a color is too dark, it will cause the absorbance value to out of the reading range. • 9) The reaction was terminated by the addition of 25 ul of 1 M sulfuric acid. Shake to ensure uniform color. • 10) The absorbance at 450 nm was recorded. • 3. Data analysis • The inhibition rate is calculated using the following equation:
IR (%)=(1−(RLU compound−RLU blank)/(RLU control−RLU blank))*100%.

CDK6/CycD1 = CDK6/CycD1 (Homo sapiens, UniProt Q00534); experiment: Enzyme activity test; format: biochemical;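 also: values come from the source column headed CDK6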
Description: (§1) • 1. The test compounds and pabocinib were configured into a […] solution of DMSO; • 2. 20 nL of stock solution was transferred to a 384-well plate using Echo550. DMSO was used as a blank control.
(§2) • 1. according to the following table to prepare 1.3X enzyme solution containing enzyme, substrate and cofactor; • 2. 15 μL of 1.3X enzyme solution was added to each well and the mixture was incubated for 30 min at room temperature; • 3. 5 μL of ATP solution was added to initiate the reaction. The final volume of each well was 20 μL; • 4. After incubation for 150 min at room temperature, 75 μL of termination buffer solution was added to terminate the experiment; • 5. The samples were analyzed using EZ reader.
(§3) The % inhibition was calculated using the following equation
(§4) The one treated with DMSO is the positive control (PC)
(§5) The one without enzyme is the negative control (NC)
(§6) % Inhibition=100-100*((CRPC−CRsample)/(CRPC−CRNC))

CDK2/CycE1 = CDK2/CycE1 (Homo sapiens, UniProt P24941); experiment: Enzyme activity test; format: biochemical;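 also: values come from the source column headed CDK2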
Description: as §1, §2, §3, §4, §5, §6

CDK4/CycD3 = CDK4/CycD3 (Homo sapiens, UniProt P11802); experiment: Enzyme activity test; format: biochemical;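 also: values come from the source column headed CDK4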
Description: as §1, §2, §3, §4, §5, §6

OVCAR3 cells = experiment: Cell proliferation inhibition assay (MTT, 7 days); format: cell-based; settings: Homo sapiens, OVCAR-3, 168 h, 7 days incubation
Description: (§7) MCF7, T47D, OVCAR3 and HCC1806 cells were inoculated in 96-well plates at 3000, 3000, 2500, and 2000 cells/well, respectively, and cultured overnight at 37° C., 5% C02 incubator.
(§8) 1. […] Then 2.5 μl of the stock solution was dissolved in 497.5 μl of DMSO-free medium, and then a 3-fold serial gradient dilution was performed with 0.1% DMSO medium for a total of 9 concentrations, and the concentrations of the compounds after dilution were as follows: • 10000 nM, 3333.33 nM, 1111.11 nM, 370.34 nM, 123.45 nM, 41.15 nM, 13.72 nM, 4.57 nM, and 1.52 nM. • b) After fully mixing, 20 μL of compound solutions were added into cell culture plates containing 80 μL of cells respectively, with 4 replicate wells for each concentration. • c) The cells were transferred to an incubator and incubated for 7 days, and exchanged with fresh culture medium containing the same concentration of compounds when incubated to day 4. 2. MTT assay • a) The cell culture plate was taken out and 10 μL of 5 mg/ml MTT was added to the hood. • b) The cell culture plate was put back into the incubator and continued to incubate for 3 hours. • c) The cell culture plate was taken out to remove the culture medium, and 100 μL of isopropanol (0.4 mMHCl, 0.4% NP40) was added to the plate, and the plate was shaken on a shaker at room temperature for 30 minutes and read at 570 nm. 3. Data analysis
(§9) The survival rate (% Cell Survival) was calculated using the following equation:
(§10) % Cell Survival=100%×(OD_Sample−OD_LCave)/(OD_HC−OD_LCave) • OD_HC: 0.1‰ cell readings of DMSO control • OD_Sample: cell readings of compound addition • OD_LC: readings of blank medium • Analyed by Prizm: Dose-response-Inhibition Log(inhibitor) vs response (three parameters for the best fit)
(§11) IC50 (nM) values were calculated by concentration-response curve fitting.

T47D cells = experiment: Cell proliferation inhibition assay (MTT, 7 days); format: cell-based; settings: Homo sapiens, 168 h, 7 days incubation
Description: as §7, §8, §9, §10, §11

MCF7 cells = experiment: Cell proliferation inhibition assay (MTT, 7 days); format: cell-based; settings: Homo sapiens, 168 h, 7 days incubation
Description: as §7, §8, §9, §10, §11

HCC1806 cells = experiment: Cell proliferation inhibition assay (MTT, 7 days); format: cell-based; settings: Homo sapiens, HCC1806, 168 h, HCC1086 [sic], 7 days incubation
Description: as §7, §8, §9, §10, §11

xMCF-7/Palbo-R cells = experiment: xMCF-7/Palbo-R xenograft tumor model; format: in vivo; settings: 20 mg/kg, oral tube feeding twice daily for 20 days, Balb/c nude female mice
Description: To establish a xenograft tumor model, 1×10^7 xMCF-7/Palbo-R cells were suspended in 0.2 mL of a mixture of Matrigel and […] (1:1) and injected subcutaneously into 6-8 week-old Balb/c nube female mice. Tumor growth was observed periodically, and the volume (volume=½×(length×width 2)) was measured with a vernier caliper. When the tumors grew to an average volume of 100˜150 mm3, the drug was administered to mice (12 days after inoculation) in random groups according to the tumor size and their body weights. […] The drugs were administered by oral tube feeding twice daily for 20 days. Tumor volume and animal weight were measured twice a week and continued until the end of the experiment. Dosing day was defined as day 0. Measurement time points were day 0, day 3, day 7, day 10, day 14, day 17 and day 20. All mice were euthanized by cervical dislocation. At the end of the experiment, tumors were collected and weighed to calculate TGI values (see Table 4).

OVCAR-3 cells = experiment: OVCAR-3 xenograft tumor model; format: in vivo; settings: oral tube feeding twice daily for 21 days, BALB/c nude female mice
Description: OVCAR-3 cells were cultured in RPMI1640 culture medium containing 20% fetal bovine serum and 10 μg/mL Insalin. Cells in the exponential growth phase were collected, and the cells were resuspended in the mixed solution of PBS and Matrigel in a ratio of 1:1 to a suitable concentration for subcutaneous tumor inoculation in nude mice.
To establish a xenograft tumor model, 1×10^7 OVCAR-3 cells were suspended in 0.2 mL of a mixture of PBS and Matrigel (1:1) and injected subcutaneously into 6-8-week-old BALB/c nube female mice on the right back. Tumor growth was observed periodically, and the volume (volume=½[…](length×width 2)) was measured with a vernier caliper. When the tumors grew to an average volume of 100˜150 mm^3, the drug was administered to mice (27 days after inoculation) in random groups according to the tumor size and their body weights. […] Tumor volume and animal weight were measured twice a week and continued until the end of the experiment. Dosing day was defined as day 0. Measurement time points were day 0, day 3, day 7, day 10, day 14, day 17 and day 21. All mice were euthanized by cervical dislocation. At the end of the experiment, tumors were collected and weighed to calculate TGI values (see Table 5).

Sequence of CDK6/CycD1 (Q00534 whole entry, species assumed): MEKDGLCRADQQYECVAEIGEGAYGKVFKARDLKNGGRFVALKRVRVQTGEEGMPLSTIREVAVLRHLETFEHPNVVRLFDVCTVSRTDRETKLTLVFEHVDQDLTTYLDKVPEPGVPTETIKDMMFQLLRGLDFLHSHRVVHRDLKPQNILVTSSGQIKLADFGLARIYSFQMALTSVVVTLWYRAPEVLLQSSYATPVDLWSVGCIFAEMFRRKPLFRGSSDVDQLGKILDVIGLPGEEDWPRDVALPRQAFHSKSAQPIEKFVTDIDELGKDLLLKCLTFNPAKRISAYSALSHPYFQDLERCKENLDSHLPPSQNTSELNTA
Sequence of CDK6/CycD1 (P24385 whole entry partner, species assumed): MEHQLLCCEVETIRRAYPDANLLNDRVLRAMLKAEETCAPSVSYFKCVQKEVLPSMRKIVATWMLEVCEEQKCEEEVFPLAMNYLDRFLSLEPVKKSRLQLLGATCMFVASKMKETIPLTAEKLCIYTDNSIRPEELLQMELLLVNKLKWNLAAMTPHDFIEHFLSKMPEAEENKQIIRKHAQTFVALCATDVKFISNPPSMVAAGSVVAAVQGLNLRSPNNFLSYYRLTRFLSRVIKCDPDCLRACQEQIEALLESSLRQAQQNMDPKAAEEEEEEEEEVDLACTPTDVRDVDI
Sequence of CDK4/CycD3 (P11802 whole entry, species assumed): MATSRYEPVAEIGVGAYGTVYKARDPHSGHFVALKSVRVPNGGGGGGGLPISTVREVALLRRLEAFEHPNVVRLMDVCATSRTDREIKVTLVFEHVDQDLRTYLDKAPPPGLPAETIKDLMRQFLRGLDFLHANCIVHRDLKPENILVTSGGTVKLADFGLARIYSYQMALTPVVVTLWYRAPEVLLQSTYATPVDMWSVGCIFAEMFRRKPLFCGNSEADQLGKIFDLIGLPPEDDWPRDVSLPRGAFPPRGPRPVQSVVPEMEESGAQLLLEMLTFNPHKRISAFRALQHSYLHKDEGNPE
Sequence of CDK4/CycD3 (P30281 whole entry partner, species assumed): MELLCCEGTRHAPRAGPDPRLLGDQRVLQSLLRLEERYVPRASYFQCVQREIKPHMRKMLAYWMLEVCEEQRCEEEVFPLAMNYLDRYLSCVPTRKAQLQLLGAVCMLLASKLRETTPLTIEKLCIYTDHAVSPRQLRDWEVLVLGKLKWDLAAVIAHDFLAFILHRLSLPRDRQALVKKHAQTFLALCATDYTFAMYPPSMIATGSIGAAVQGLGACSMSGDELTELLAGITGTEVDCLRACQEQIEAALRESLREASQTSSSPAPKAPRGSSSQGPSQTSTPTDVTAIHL

Row | Structure (SMILES) | IC50 (MCF-7-Palbo-R cells; read-out: AbsIC50) [nM] | IC50 (MCF-7-Palbo-R cells; read-out: ReIC50) [nM] | Bottom(%) (MCF-7-Palbo-R cells; bottom of inhibition curve) | Top(%) (MCF-7-Palbo-R cells; top of inhibition curve) | IC50 (CDK6/CycD1) [nM] | IC50 (CDK2/CycE1) [nM] | IC50 (CDK4/CycD3) [nM] | IC50 (OVCAR3 cells) [nM] | IC50 (T47D cells) [nM] | IC50 (MCF7 cells) [nM] | IC50 (HCC1806 cells) [nM] | TGI (xMCF-7/Palbo-R cells) [%] | TGI (OVCAR-3 cells; 30 mg/kg) [%] | TGI (OVCAR-3 cells; 50 mg/kg) [%]
1 | C[C@@]1(O)CCC[C@H]1n1c(=O)c(OC(F)F)cc2cnc(NC3CCN(S(=O)(=O)c4ccc(F)cc4)CC3)nc21 [Example 12] | 26 | 26 | 7.117 | 99.196 | < 10 | < 10 | < 10 | ≤ 50 | ≤ 50 | 50 to 5200 | ≤ 50 | – | – | –
2 | C[C@@]1(O)CCC[C@H]1n1c(=O)c(OC(F)F)cc2cnc(NC3CCN(S(=O)(=O)c4cc(F)ccc4F)CC3)nc21 [Example 26] | – | – | – | – | < 10 | < 10 | 10 to 100 | 50 to 5200 | ≤ 50 | 50 to 5200 | 50 to 5200 | – | – | –
3 | C[C@@]1(O)CCC[C@H]1n1c(=O)c(OC(F)F)cc2cnc(NC3CCN(S(=O)(=O)c4ccccn4)CC3)nc21 [Example 27] | – | – | – | – | < 10 | < 10 | < 10 | ≤ 50 | ≤ 50 | ≤ 50 | ≤ 50 | 61.5 | – | –
4 | CCCc1ccc(S(=O)(=O)N2CCC(Nc3ncc4cc(OC(F)F)c(=O)n([C@@H]5CCC[C@@]5(C)O)c4n3)CC2)cc1 [Example 28] | – | – | – | – | < 10 | < 10 | 10 to 100 | 50 to 5200 | 50 to 5200 | 50 to 5200 | 200 to 51000 | – | – | –
5 | [2H]C1(Nc2ncc3cc(OC(F)F)c(=O)n([C@@H]4CCC[C@@]4(C)O)c3n2)CCN(S(C)(=O)=O)CC1 [Example 29] | – | – | – | – | < 10 | < 10 | < 10 | ≤ 50 | 50 to 5200 | ≤ 50 | ≤ 50 | – | 69 | 74.8
6 | C[C@@]1(O)CCC[C@H]1n1c(=O)c(OC(F)F)cc2cnc(NC3CCN(S(=O)(=O)c4cccnc4)CC3)nc21 [Example 51] | – | – | – | – | < 10 | < 10 | < 10 | ≤ 50 | ≤ 50 | ≤ 50 | 50 to 5200 | – | – | –
7 | C[C@@]1(O)CCC[C@H]1n1c(=O)c(OC(F)F)cc2cnc(Nc3ccc4c(c3)CN(S(C)(=O)=O)C4)nc21 [Example 64] | – | – | – | – | < 10 | < 10 | 10 to 100 | ≤ 50 | ≤ 50 | 50 to 5200 | 50 to 5200 | – | – | –
8 | CC(C)(O)Cn1cc(S(=O)(=O)N2CCC(Nc3ncc4cc(OC(F)F)c(=O)n([C@@H]5CCC[C@@]5(C)O)c4n3)CC2)cn1 [Example 75] | – | – | – | – | < 10 | < 10 | 10 to 100 | ≤ 50 | ≤ 50 | ≤ 50 | 50 to 5200 | – | – | –
